Measurements as given in patent publication US11472846B2, “Compositions and methods for treating diseases by inhibiting exosome release” (priority 2016, dated 2022).
Read-outs that look alike come from different tables or passages of the source.

Key:
Format in all cases: cell-based, human
[1] = test system: MCF-7 breast cancer cells; test: MTT proliferation assay, MCF-7; settings: MCF-7 cells
Method: (§1) 1-3. Viability and proliferation. Human breast cancer cell lines were seeded into 96-well plates (5000 cells/well) and treated for 24 hours with various concentrations of SMR peptides including PEG-SMRwt-Clu, PEG-SMRwt and PEG-SMRmut to determine IC50 (inhibition concentration). Cell proliferation was determined using the MTT assay (Molecular Devices, Sunnyvale, Calif.). Control experiments were performed with MTT treated cells alone and untreated cells, and on this basis, the incubation times of 24 hr and 48 hr were used for an MTT assay of peptide-treated cells (Stockerta JC. et al., 2012 and Riss TL. et al., 2015).
(§2) 7-4. Cell proliferation and cytotoxicity assay. Human breast cancer cell lines MCF-7, MDAMB-231, and leukemia K562 cells, and non-tumorigenic MCF-10A cells are seeded into 96-well plates (5000 cells/well) and treated for 24 hours with 0-1120 nM SMRwt-CPP or SMRmut-CPP (FIG. 10). Cell proliferation was determined using the MTT [3-(4,5-dimethylthiazol-2-yl)-2,5-diphenyltetrazolium bromide] dye assay by SpectraMax M5 Fluorescence Plate Reader (Molecular Devices. Sunnyvale, Calif.). Cell viability was estimated by the conversion of yellow MTT by mitochondrial dehydrogenases of living cells to purple formazon (MTT assay). Control experiments were performed with cells treated or untreated with MTT, and on this basis, an incubation time of 24 hours was used for MTT assays of peptide-treated cells (Huang, M. B., et al., Oncotarget, 2017. 8(7): pp. 11302-11315.). Statistical significance of results was determined from three independent experiments including triplet or quadruplet sets in each experiment.

[2] = test system: MDA-MB-231 breast cancer cells; test: MTT proliferation assay, MDA-MB-231; settings: MDA-MB-231 cells
Method: as §1, §2

K562 cells = test: TUNEL apoptosis assay, K562; settings: 48 hours, MKT-077 337.5 nM/mL, DMA 300 μM/mL, Omeprazole 200 μM/mL, paclitaxel 1.6 uM/mL, cisplatin 2 mg/mL
Method: (§3) 7-8. Apoptosis assay by flow cytometry. For assessment of apoptosis, MCF-7 and MDA-MB-231 breast cancer cells and were seeded into 6-well plates at 4×10^5 cells per well and treated for 48 hours with 925 nM/mL of MKT-077 on MDA-MB-231 cells, 500 nM/mL of MKT-077 on MCF-7 cells, 337.5 nM/mL of MKT-077 on K562 cells, 300 μM/mL of DMA, 200 μM/mL of Omeprazole, 1.6 uM/mL of paclitaxel, 2 mg/mL of cisplatin, or combined treatment with either paclitaxel or cisplatin in combination with each of the three mortalin inhibitors. Apoptosis was determined using the TUNEL detection kit (Nexcelom, MA) and GUAVA easyCyte HT (EMD Millipore Corporation, Temecula, Calif.) system for fluorometric detection. (FIG. 13).

MDA-MB-231 exosomes = test: Western blot of exosomal proteins (Alix, vimentin, mortalin), MDA-MB-231; settings: MDA-MB-231 cells, 48 hr treatment
Method: (§4) 7-7. Protein analysis by Western blotting. Exosomes were isolated from cell culture supernatants as described above. Protein concentrations were determined by measuring absorbance at 280 nm (Nanodrop 2000). Cultured cells were treated with PEG-SMR-Clu, SMR-CPP peptides, MKT-077, Omeprazole or DMA at 37° C. for 48 hr. To evaluate mortalin, vimentin and exosome expression, Western blot analysis was performed using anti-mortalin (Grp-75), anti-Vimentin and anti-Alix antibodies, respectively (FIG. 12).
(§5) Exosomes and cell lysates were prepared by incubating 5-10 min at 95° C. in sample buffer. The lysates were subjected to SDS-PAGE under reducing conditions (150 mM DTT) in 4-20% Criterion™ TGX™ precast gels (BioRad, Hercules, Calif.) and then transferred onto a nitrocellulose membrane (Bio-Rad, Hercules, Calif.). Nitrocellulose membranes were blocked with 5% skim milk (MedSupply, Atlanta, Ga.) in TBS containing 0.05% Tween 20 (TBST) for 1 h at room temperature. The membranes were treated with anti-mortalin (Grp-75) mAb or anti-α-tubulin mAb for cell lysates (FIG. 15, Panels A and B) or with anti-Alix and anti-vimentin or anti-mortalin for exosomes (FIG. 12), followed by peroxidase-conjugated goat anti-mouse IgG. Bands were developed with an ECL chemiluminescent substrate (Santa Cruz Biotechnology, Santa Cruz, Calif.) and exposed to an ImageQuant LAS 4000 imaging system (GE Healthcare, Piscataway, N.J. 08854).

K562 exosomes = test: Western blot of exosomal proteins (Alix, vimentin, mortalin), K562; settings: K562 cells, 48 hr treatment
Method: as §4, §5

[3] = test system: MDA-MB-231 breast cancer cells; test: Exosome release by acetylcholinesterase (AchE) assay, MDA-MB-231; settings: MDA-MB-231 cells, five-day treatment
Method: (§6) 1-6. Exosome isolation and purification. Exosomes were isolated from breast cancer cells by differential centrifugation as previously described (Ali SA. et al., 2010). Untreated tumor cells were used as a control. Briefly, the above treated and untreated cell culture supernatants were centrifuged at 400×g for 10 minutes. The supernatants were transferred to a clear tube and centrifuged at 10,000×g for 30 minutes. The supernatants from the second spin were ultracentrifuged at 200,000×g for 2 hours to pellet exosomes. Finally, the exosome pellets were re-suspended with PBS and stored at 4° C. until used for analysis.
(§7) 1-7. Exosome characterization by acetylcholinesterase (AchE) assay. Purified exosomes were quantitated by measurement of AchE as described (Ellman et al., 1961). Briefly, a 100 mM dithibionitrobenzoic (DTNB) solution was prepared for use as a stock color indicator, and a 28.9 mg/mL acetylthiocholine iodide in PBS solution was prepared as a stock substrate. The stock substrate stock can be stored at −20° C. up to one month, while the color indicator can be stored at 4° C. for two weeks. A working solution was prepared by mixing 10 mL of PBS with 200 μL of Substrate and 500 μl of DTNB. 50 μL of each exosome sample was transferred to 96 well microtitre plates, and a standard curve was prepared using AchE from 0.98 mU/mL to 2000 mU/mL. After 50 μL of standards were added into separate wells, 200 μL of the working solution was added to all wells. After 20 min incubation, AchE activity was measured at 450 nm using a SpectroMax M5 fluorimeter.
(§8) 7-5. Exosome isolation and purification. Exosomes were isolated from breast cancer cells and leukemia cells using the ExoQuick-TC Exosome Precipitation Kit (System Biosciencences [SBI], Mountain View Calif.) or the miRCURY Exosome Isolation Kit (EXIQON, Woburn, Mass.) according to the manufacturer's instructions. Untreated tumor cells were used as a control. Briefly, treated and untreated cell culture supernatants (10 mL) were centrifuged at 3000×g for 15 minutes. The resulting supernatants were transferred to a clear tube, 2 mL of ExoQuick-TC buffer was added, mixed and incubated overnight at 4° C. Following the incubation, the sample contents were centrifuged at 1500×g for 30 minutes, the supernatants were aspirated off, the pellets were centrifuged at 1500×g for 5 minutes and any further traces of supernatant were removed (SBI). Alternatively, treated and untreated cell culture supernatants were centrifuged at 10,000×g for 5 minutes to remove cell debris, supernatants (10 ml) were transferred into new tubes, and 4 mL of precipitation buffer (EXIQON) was added, and the contents were mixed and incubated at 4° C. overnight. Following the incubation, the sample contents were centrifuged at 10,000×g for 30 minutes (EXIQON). Exosome-containing pellets were re-suspended in PBS and stored at 4° C. or −80° C.
(§9) 7-6. Exosome characterization by acetylcholinesterase (AchE) assay. Purified exosomes were quantitated by measurement of AchE as previously described (Huang et al., Oncotarget, 2017. 8(7): pp. 11302-11315). Briefly, 100 mM dithibionitrobenzoic (DTNB) was prepared as a stock color indicator, and prepared a stock substrate containing 28.9 mg/mL of acetylthiocholine iodide in PBS. Substrate stock can be stored at −20° C. up to one month; the stock color indicator can be stored at 4° C. for two weeks. A working solution was prepared by mixing 10 mL of PBS with 200 μL of substrate and 500 μl of DTNB. 50 μL of each exosome sample was transferred to a 96 well microtitre plate, and a standard curve for AchE concentrations was prepared using AchE from 0.98 mU/mL to 2000 mU/mL. After 50 μL of standards were added into separate wells, 200 μL of the working solution was added to each well. After a 20 min incubation, AchE activity was measured at 450 nm using a SpectroMax M5 fluorometer (FIG. 11).

MDA-MB-231 cells = test: TUNEL apoptosis assay, MDA-MB-231; settings: 48 hours, MKT-077 925 nM/mL, DMA 300 μM/mL, Omeprazole 200 μM/mL, paclitaxel 1.6 uM/mL, cisplatin 2 mg/mL
Method: as §3

[4] = test system: MCF-7 breast cancer cells; test: Exosome release by acetylcholinesterase (AchE) assay, MCF-7; settings: MCF-7 cells, five-day treatment
Method: as §6, §7, §8, §9

[5] = test system: exosomes from MCF-7 cells; test: Western blot of exosomal proteins (Alix, vimentin, mortalin), MCF-7; settings: 48 hr treatment, vs negative controls
Method: as §4, §5

MCF-7 cells = test: TUNEL apoptosis assay, MCF-7; settings: 48 hours, MKT-077 500 nM/mL, DMA 300 μM/mL, Omeprazole 200 μM/mL, paclitaxel 1.6 uM/mL, cisplatin 2 mg/mL
Method: as §3

[6] = 24 hours, MTT, read-out: 50% inhibition of cell growth
[7] = 24 hours, read-out: SMR at IC50 concentration

Compound | apoptosis (TUNEL) (K562 cells) [%] | Vimentin expression in exosomes (MDA-MB-231 exosomes) | Alix expression in exosomes (K562 exosomes) | Mortalin expression in exosomes (K562 exosomes) | Vimentin expression in exosomes (K562 exosomes) | average AChE concentration day 1 to 5 [3] [mU/mL] | apoptosis (TUNEL) (MDA-MB-231 cells) [%] | average AChE concentration days 1 to 5 [4] [mU/mL] | Alix expression in exosomes [5] | Mortalin expression in exosomes [5] | Vimentin expression in exosomes [5] | apoptosis (TUNEL) (MCF-7 cells) [%] | further results
CC(=O)O[C@H]1C(=O)[C@@]2(C)[C@H]([C@H](OC(=O)c3ccccc3)[C@]3(O)C[C@H](OC(=O)[C@H](O)[C@@H](NC(=O)c4ccccc4)c4ccccc4)C(C)=C1C3(C)C)[C@]1(OC(C)=O)CO[C@@H]1C[C@@H]2O [paclitaxel, reference compound] | – | – | – | – | – | – | – | – | – | – | – | – | IC50 ([1]; Homo sapiens, MCF7, data not shown, read-out: experimentally determined IC50 dosage): 1600 nM; IC50 ([2]; Homo sapiens, data not shown, read-out: experimentally determined IC50 dosage): 1600 nM
CCn1c(=Cc2cccc[n+]2CC)sc(=C2Sc3ccccc3N2C)c1=O.[Cl-] [MKT-077, 1-Ethyl-2-[[3-ethyl-5-(3-methyl-2(3H)-benzothiazolylidene)-4-oxo-2-thiazolidinylidene]methyl]-pyridinium chloride] | 82.7 | no significant change | significantly decreased | significantly decreased | significantly | 29 | 52.13 | 22 | significantly decreased | significantly decreased | significantly decreased | 90.1 | Mortalin expression in exosomes (MDA-MB-231 exosomes): No significant change
N.N.[Cl][Pt][Cl] [cisplatin, reference compound] | – | – | – | – | – | – | – | – | – | – | – | – | experimentally determined IC50 dosage ([1]; data not shown): 3000 µg/mL; experimentally determined IC50 dosage ([2]; data not shown): 2000 µg/mL
COc1ccc2[nH]c([S+]([O-])Cc3ncc(C)c(OC)c3C)nc2c1 (stereo not shown) [Omeprazole, 5-Methoxy-2-[[(4-methoxy-3,5-dimethyl-2-pyridinyl)methyl]sulfinyl]-1H-benzimidazole] | 6.1 | no significant change | significantly decreased | significantly decreased | significantly | 25 | 3.0 | 26 | not accompanied by significant reductions | no significant changes | significantly decreased | 1.1 | Mortalin expression in exosomes (MDA-MB-231 exosomes): No significant change
CN(C)c1nc(N)c(C(=O)NC(=N)N)nc1Cl [DMA, 5-(N,N-Dimethyl)amiloride] | 15.2 | significantly decreased | significantly decreased | significantly decreased | significantly | 37 | 30.43 | 26 | not accompanied by significant reductions | no significant changes | significantly decreased | 11.83 | –
NXNVGFPVAAVGFPV (SEQ ID NO: 36) [PEG-SMRwt] | – | – | – | – | – | – | – | – | – | – | – | – | IC50 [1, 6]: 280 nM; IC50 [1, 7]: 280 nM; IC50 [2, 6]: 420 nM; IC50 [2, 7]: 420 nM
SMRmut-CPP (AGFPVAAAGFPVGRKKRRQRRRPPQ) [SEQ ID NO: 41] | – | – | – | – | – | – | – | – | – | – | – | – | AChE initial increase on day 1 ([3]; day 1, mock 146.52): 141.47 mU/mL; AchE concentration on day 3 ([4]; day 3, mock 69.15): 66.05 mU/mL; AchE concentration, initial increase ([4]; days 1 and/or 2, mock 155.13): 150.06 mU/mL
